Test results as given in patent US12589143B2, “Human anti-PD-L1 peptide vaccines and methods of their use” (priority 2019, dated 2026).
Where no end group is shown, it is not given here.

What was measured:
MVF-PD-L1 peptides = test: Immunogenicity in rabbits: ELISA antibody titers of sera vs the immunogen; assay type: in vivo, New Zealand White rabbits; conditions: after the second boost
Protocol: Immunogenicity of MVF-PD-L1 B-cell epitopes. New Zealand White rabbits were immunized with 1 mg of each MVF-peptide immunogens dissolved in dd H2O emulsified (1:1) in Montanide ISA 720 vehicle (Seppic) with 333 μg of N-acetylglucosamine-3yl-acetyl-1-alanyl-d-isoglutamine (nor-MDP). Rabbits were boosted with the same doses at 3-week's intervals. Blood was collected via the central auricular artery in rabbits. Blood was collected weekly (1Y+3, 2Y+1, 2Y+2,2Y+3, 3Y+1, 3Y+2 and sera tested for antibody titers by ELISA using the immunogens MVF-PD-L1 peptides. Sera (terminal) from rabbit (3Y+3) immunized with MVF-PD-1 peptide immunogens were tested individually versus the immunogen by ELISA. 200 ng/well peptide were used in duplicates to coat the ELISA plates. Titers are defined as the highest dilution of sera with an absorbance value of 0.2 after subtracting the blank.
For each peptide, vaccine antibodies were raised using New Zealand white rabbits purchased from Charles River Laboratories (Wilmington, MA, USA). […] Antibody titers were monitored by direct ELISA against the peptide immunogen, the peptide B cell epitope, and an acetylated version of the B-cell epitope. […] Peptide vaccine antibodies were purified by affinity chromatography using a protein A/G column and the concentration was measured by Coomassie protein assay. […]

[1] = Mouse antibody isotyping assay; assay type: in vivo, Balb/c mice
Protocol: We also analyzed the different isotypes of antibodies being generated by vaccination.
Antibody isotypes (i.e. IgA, IgM, IgG1, IgG2a, IgG2b, IgG3) were determined using the Mouse Typer Isotyping Kit (BIO-RAD, Hercules, CA). Briefly, wells of a 96-well assay plate were coated with 200 ng peptide antigen in ddH2O, and incubated at 4° C. overnight. The plate was washed with washing buffer (0.05% Tween-20 and 1% horse sera in PBS). The plate was then blocked with 1% BSA in PBS at room temperature for 1 hour. 100 ul of diluted mice sera was added to each well for 2 hours and after washing the wells, 100 μl ready to use rabbit anti-mouse subclasses antibodies were added to each well respectively and incubated at room temperature for another 2 hours. The wells were washed again, 100 μl of 1/3000 dilution of goat anti-rabbit conjugated to HRP antibody (BIO-RAD, Hercules, CA) was added to each well and incubated for 1 hour at room temperature in dark. The plate was then washed and 50 μl prepared substrate solution was added to each well. The reaction was stopped with 25 μl 5% SDS stopping buffer. Absorbance at 415 nm was determined using an ELISA plate reader. Dilutions of each sera samples were determined by the ELISA titers shown in absorbance of 0.4 or higher after subtracting the background.

| Sequence | antibody titers (MVF-PD-L1 peptides) | isotypes of antibodies elicited in the mice ([1]; experiment 1 (CT26 WT)) | isotypes of antibodies elicited in the mice ([1]; experiment 2 (CT26/HER-2)) |
| --- | --- | --- | --- |
| KLLSLIKGVIVHRLEGVEGPSLVTSEHELTCQAEGYPKAE (KLLSLIKGVIVHRLEGVEGPSLVTSEHELTCQAEGYPKAE-NH2) [PD-L1(130)] | 64,000 | predominantly of the IgG1 class | predominantly of the IgG1 class |
| KLLSLIKGVIVHRLEGVEGPSLYRCMISYGGADYKRITVK (KLLSLIKGVIVHRLEGVEGPSLYRCMISYGGADYKRITVK-NH2) [PD-L1(95)] | 64,000 | – | – |
